Data published in patent publication US20060235006A1, “Combinations, methods and compositions for treating cancer” (priority 2005, published 2006).

Key:
quiescent K562 cultures = details: concentrations readily achievable in the clinic
K562 cells [1] = test: cells; details: Homo sapiens, colony formation
K562 cells [2] = test: Cytotoxicity of dasatinib in proliferating vs quiescent K562 cells (FIG. 3); assay type: cell-based; details: Homo sapiens

IC50 (K562 cells [1]; K562, proliferating K562 cells): < 1 nM
IC50 (K562 cells [1]; K562, quiescent K562 cultures (nutrient depletion)): > 12 nM
SMILES: Cc1nc(Nc2ncc(C(=O)Nc3c(C)cccc3Cl)s2)cc(N2CCN(CCO)CC2)n1 [dasatinib, ′N-(2-Chloro-6-methylphenyl)-2-[[6-[4-(2-hydroxyethyl)-1-piperazinyl]-2-methyl-4-pyrimidinyl]amino]-5-thiazolecarboxamide]
% cell kill (quiescent K562 cultures): 0%
IC50 (K562 cells [2]; K562, proliferating K562 cells (FIG. 3)): 0.69 nM
IC50 (K562 cells [2]; K562, quiescent K562 cells (FIG. 3)): > 11.2 nM
